Columns and labels:
Assay type in all cases: cell-based, human
p21 = experiment: Western blot of p21 (cell cycle arrest); conditions: 50 nM mimic; 5-FU 384 μM (HT-29 and SW-480) or 25 μM (HCT-116 and RKO)
Protocol: (§1) Western blot: Western blotting was performed by routine and well known procedures. The following antibodies were used: CDK4 (Santa Cruz Biotechnology, sc-260), CDK6 (CST, D4S8S), CDK1 (Santa Cruz Biotechnology, sc-54), Cyclin-D1 (CST, 92G2), p-Rb (S795) (CST, 9301S), Total Rb, BCLxL (CST, 2764S), PARP (CST, 9542), p53-DO1 (Santa Cruz Biotechnology, sc-126), p21 (Calbiochem, OP64), and β-actin (Sigma, A5441).
(§2) A panel of CRC cell lines was reverse transfected with 25 nM (HCT-116) or 50 nM of SCR or indicated miRNA mimics. At 16 hours post-transfection, Irinotecan (see, FIG. 5A) or 5-FU (see, FIG. 5B) at indicated doses were added. Synergy of miRNA-drug was measured by cell viability 72 hours post-transfection using CellTiter-Glo assay. The effect on apoptosis and cell cycle markers with miRNA alone or combination were assessed using 50 nM of miRNA mimic and […] (HT-29 and SW-480) or 2.5 μM Irinotecan (HCT-116 and RKO) by western blot. For 5-FU, 384 μM (HT-29 and SW-480) and 25 μM (HCT-116 and RKO) were used. Representative western blots are shown in FIG. 5C and FIG. 5D, respectively.

[1] = system: p53 mutant cell lines HT-29 and SW-480; experiment: miRNA-5-FU combination by cell viability (CellTiter-Glo); conditions: 50 nM mimic, 5-FU added 16 hours post-transfection, read 72 hours
Protocol: (§3) Cell Proliferation assays: Five thousand to ten thousand cells were reverse transfected with either scramble duplex or miRNA to a net concentration of 50 nM and plated in 96-well plate. Cell viability was measured 72 hours post-transfection using CellTiter-Glo® Luminescent Cell Viability Assay (Promega). Percent cell viability was calculated by normalizing the luminescence signal to scramble duplex wells. All transfections were performed in triplicates and reported as % Viability±SEM.
as §2

[2] = system: panel of CRC cell lines (HCT-116, RKO, HT-29, SW-480); experiment: miRNA-Irinotecan synergy by cell viability (CellTiter-Glo); conditions: 25 nM (HCT-116) or 50 nM mimic, Irinotecan added 16 hours post-transfection, read 72 hours; all four cell lines
Protocol: as §3, §2

phosphorylated Rb (S795) = experiment: Western blot of cell cycle markers; conditions: 100 nM miRNA mimics, 72 hours post-transfection; all four cell lines
Protocol: as §1
(§4) Referring in particular to FIGS. 3A, 3B, 3C, 3D, and 3E, data is presented showing that restoring expression of miR-6883-5p and miR-149* results in G1-arrest and cell death in CRC cell lines. […] The effects on cell viability were measured 72 hours post-transfection using CellTiter-Glo assay. Referring to FIG. 3B, the effects of the miRNA mimics on long-term cell proliferation of CRC cell lines was assessed by colony formation assays performed in 6-well plates. […] The effects on cell cycle markers (see, FIG. 3C) and markers of apoptosis (see, FIG. 3D) were evaluated by western blot 72 hours post-transfection. […] Referring to FIG. 3E, cell cycle profiles and apoptotic cells were assessed in three CRC cell lines by reverse transfecting with SCR or 50 nM (HCT-116 and HT-29) or 100 nM (RKO) miRNA mimics. 72 hours post-transfection, cells were fixed, stained with PI, and analyzed by FACS. […]

CDK4 = CDK4 protein (western blot) and RNA (qRT-PCR) expression in CRC cell lines transfected with miRNA mimics; conditions: 50 nM miRNA mimic vs scrambled duplex, 72 hours; HCT-116, RKO, HT-29, SW-480
Protocol: (§5) Transfection of miRNA mimics, siRNA and plasmid constructs: All miRNA mimics and siRNA transfections were performed by reverse transfection using Lipofectamine RNAiMAX (Life technologies, Grand Island, NY). 80 nM siRNA was used in all experiments for HT-29, RKO and SW-480 cell lines. 40 nM siRNA was used for HCT-116 cells. miRNA mimics were transfected at concentrations of either 25 nM, 50 nM, or 100 nM, as indicated in respective assays. CDK4-Luciferase vector was transfected in HCT-116 cells using Lipofectamine 3000 (Life technologies, Grand Island, NY) and stable cells were selected using G418 antibiotic (500 μg/mL).
(§6) Quantitative RT-PCR (qRT-PCR): Total RNA, which includes miRNA, was isolated using the Quick-RNA™ MiniPrep kit (Zymo Research, Irvine, CA). One μg of total RNA from each sample was subjected to cDNA synthesis using SuperScript® III Reverse Transcriptase kit (Life Technologies, Grand Island, NY), for detection of CDK4, CDK6, and housekeeping genes. […] The relative expression of the reported genes and miRNAs was determined using real-time PCR performed on Applied Biosystems 7900HT Fast Real-Time PCR system. […] Each cDNA sample was amplified using Power SYBR Green (Applied Biosystems, CA) and miRNA components were quantified using TaqMan® Universal Master Mix II, no UNG (Applied Biosystems, CA). […]

CDK4 3′UTR = experiment: CDK4-Luciferase (pMirtarget CDK4 3′UTR) reporter assay in stable HCT-116 cells; conditions: 48 hours; for direct binding to the 3′UTR region of CDK4: pMirtarget-CDK4-Luciferase vector, HCT-116, 50 nM mimic
Protocol: as §5
Luciferase assays: CDK4-Luciferase containing stable HCT-116 cells were reverse-transfected with either scramble duplex or 50 nM miRNA mimics. Luciferase signal was detected 48 hours post-transfection and Relative Luciferase Units (RLU) were calculated by normalizing luciferase signal per μg of protein per assay well. All transfections were performed in triplicates and reported as RLU units±SEM.
Referring in particular to FIGS. 2A, 2B, and 2C, data is presented showing that miR-6883-5p and miR-149* negatively regulate expression of […] and CDK6 in CRC cell lines. Referring to FIG. 2A, CDK4 and CDK6 protein levels were detected in a panel of CRC cell lines reverse transfected with 50 nM of miRNA mimics or scrambled duplex (SCR) for 72 hours. Referring to FIG. 2B, qRT-PCR was performed for CDK4 and CDK6 in SCR or miRNA mimics transfected in CRC cell lines (50 nM, 72 hours, n=3). *, ** and *** indicate p-value relative to SCR expression. Referring to FIG. 2C, HCT-116 cells stably selected with CDK4-Luciferase construct were reverse transfected with SCR or 50 nM of the indicated miRNA mimics for 48 hours. Measured luciferase activities were normalized per μg of protein for indicated samples and reported as RLU±SEM (n=3). * indicates p-value relative SCR RLU.

CDK6 = CDK6 protein (western blot) and RNA (qRT-PCR) expression in CRC cell lines transfected with miRNA mimics; conditions: 50 nM miRNA mimic vs scrambled duplex, 72 hours; HCT-116, RKO, HT-29, SW-480
Protocol: as §5, §6

BCLXL = experiment: Western blot of BCLXL; conditions: 100 nM miRNA mimic, 72 hours
Protocol: as §1, §4

PARP = experiment: Western blot of markers of apoptosis (PARP cleavage); conditions: RKO and SW-480 cells; 100 nM miRNA mimics, 72 hours
Protocol: Referring to FIG. 3A, a panel of CRC cell lines was reverse transfected with 50 nM SCR or 50 nM of indicated miRNA mimics. […] All four CRC cell lines were reverse transfected with 100 nM SCR or indicated miRNA mimics. The effects on cell cycle markers (see, FIG. 3C) and markers of apoptosis (see, FIG. 3D) were evaluated by western blot 72 hours post-transfection. Representative western blots are shown (n=3).

XIAP = experiment: Western blot of XIAP; conditions: 100 nM miRNA mimic, 72 hours

Molecule	cell cycle arrest as seen by p21 levels, single agent (p21)	sensitivity to 5-FU (cell viability) [1]	synergy with Irinotecan (cell viability) [2]	levels of phosphorylated Rb (S795) (phosphorylated Rb (S795))	CDK4 protein and RNA level (CDK4)	direct binding to the 3′UTR region of CDK4 (CDK4 3′UTR)	CDK6 protein and RNA level (CDK6)	BCLXL level (BCLXL)	apoptosis (PARP-cleavage) (PARP)	XIAP level (XIAP)	luciferase signal (CDK4 3′UTR; HCT-116 CDK4-Luciferase stable cells, 50 nM mimic, compared to miR-206 and miR-149*)
O=c1[nH]cc(F)c(=O)[nH]1 [5-FU, 5-fluorouracil, reference compound]	caused cell cycle arrest	–	–	–	–	–	–	–	–	–	–
hsa-miR-149-3p [miR-149*]	caused cell cycle arrest	increased the sensitivity of p53 mutant cell lines HT-29 and SW-480 to 5-FU	synergized with Irinotecan	reduced levels of phosphorylated Rb (S795)	no impact on CDK4	directly bind to the 3′UTR region of CDK4	more potent in reducing levels of CDK6	–	–	–	–
hsa-miR-6883-5p (AGGGAGGGUGUGGUAUGGAUGU; called a modified oligonucleotide, chemistry not given here; listed as Homo sapiens) [miRNA mimic purchased from Sigma-Aldrich (HMI2616)]	–	increased the sensitivity of p53 mutant cell lines HT-29 and SW-480 to 5-FU	synergized with Irinotecan	reduced levels of phosphorylated Rb (S795)	targeted both CDK4 and CDK6 at both the protein and RNA level	directly bind to the 3′UTR region of CDK4	targeted both CDK4 and CDK6 at both the protein and RNA level	downregulated XIAP and BCLXL	most potent in inducing apoptosis	downregulated XIAP and BCLXL	significantly reduced luciferase signal

Reference: patent US12595483B2, “Treatment of tumors with miRNA targeting CDK4/CDK6” (Institute For Cancer Research, priority 2017, dated 2026)
